What was measured:
[1] = system: SK-Hep 1 cells; assay: ATP dependent luminescence cell viability assay, SK-Hep1; format: cell-based
Text: (§1) The non-small cell lung cancer (NSCLC) cell line NCI-H1299, the breast cancer cell lines MCF7 and MDA MB 231 and the Hep3B, Hep2G and SK-Hep1 cells were obtained from the American Type Culture Collection (ATCC) (Manassas, Va., USA) and maintained as a monolayer culture in Eagle's minimum essential medium (MEM, Invitrogen, Gaithersburg, Md., USA) supplemented with 10% fetal bovine serum at 37 C and 5% CO2. All treatments were done in triplicate samples on 96-well plates. VX2 cells were maintained as described in Geschwind et al., Cancer Res., 62:3909-3913 (2002).
Cytotoxicity of 3-BrPA was evaluated by the IC50 values, representing the drug concentration which depletes ATP by 50% compared to non-treated control. On day 1, cells were seeded into 96-well plates in a volume of 100 μl per well. On day 2, the medium of all wells was removed and an aliquot of 100 μl of media having serial dilutions of 3-BrPA in PBS, NaHCO3, NaOH, KOH and KHCO3 was added to the appropriate well. […] Briefly, 100 μl assay reagent was added to each well and mixed at room temperature for 2 min to develop luminescent signal. The luminescence intensity (cps) from each sample was determined with a spectrometer (Model Victor III, Perkin Elmer, Mass.). […]
The effects on cell viability and cellular metabolism of 3-BrPA on Hep3B and VX2 cells were examined using luminescence ATP assays, as described above. […]

[2] = system: MCF7 cells; assay: Trypan blue viability assay, MCF7; format: cell-based
Text: as §1
The efficacy of 3-BrPA in the treatment of breast cancer cells was tested using the cancer cell lines MCF7 and MDA MB 231. As described above, the cell lines were grown as monolayers in MEM (Invitrogen) supplemented with 10% fetal bovine serum (HyClone) at 37 C.° and 5% CO2, and all treatments were done in triplicate samples on 96-well plates.
The EC50 of 3-BrPA for MCF7 cells lies between 0.05 and 0.06 mM. […] Therefore, considering that oral administration of 3-BrPA buffered in NaHCO3 is effective in prolonging survival in liver cancer models (Example 2), it is probable that oral administration of 3-BrPA buffered in NaHCO3 would also be effective in the treatment of breast cancer.

[3] = system: tumors implanted in rabbit livers; details: cited from earlier work

Question: With `O=C(O)C(=O)CBr` [3-BrPA, 3-bromopyruvate] as the compound, how does the “Level of ATP” value ([1]; SK-Hep1, 3, 24, 48 hours) read?
Answer: dose and time dependent decrease

Question: What about the IC50 ([1]; SK-Hep 1, at 48 hours, read-out: IC50 (ATP depletion)) of the same compound?
Answer: 125 µM

Question: What about the Cells died ([2]; 0.05 mM, within 3 hours) of the same compound?
Answer: more than 40%

Question: And the Cell death ([2]; 0.15 mM)?
Answer: 100%

Question: And the “EC50 compared with EC50 of 3-BrPA for VX2 liver cancer cells” value ([2]; MCF7)?
Answer: lower

Question: What about the “Viability (trypan blue)” value ([2]; MCF7) of the same compound?
Answer: dose and time dependent decrease in viability

Question: And the Tumor eradication ([3]; administered directly into the liver by intra-arterial injection)?
Answer: completely eradicate tumors

Question: What about the Therapeutic dose ([3]; in 25 ml of PBS, continuous 1 hour intra-arterial infusion) of the same compound?
Answer: 1.75 mM

Question: And the “Biodistribution: tumor uptake” value ([3]; intra-arterially delivered)?
Answer: high tumor uptake

Question: What about the “Effects on healthy tissue” value ([3]; intra-arterially delivered) of the same compound?
Answer: no negative effects on healthy tissue
